Test system: Xenopus laevis embryos
Assay: Embryonic morphology after PMA treatment
Type: in vivo
Conditions: added 21 hours after fertilization, 18° C. for 30 hours; untreated showed typical neurula
Protocol: Embryos were sorted for successful cleavage to 2 cells (1.5 hours after fertilization), split into groups for subsequent treatment (triplicate treatments per each experimental group) and visually monitored for normal embryonic morphology. Rates of abnormal morphology were recorded for each group. Embryos at stage 8 were obtained after incubation of the fertilized embryos at 23° C. for 5 hours. PMA (100 ng/ml) or DMSO (0.01%, solvent used to dissolve PMA) was added to the embryos 2 hours after fertilization. […] Embryos at stage 15 were obtained after incubation of the fertilized embryos at 18° C. for 30 hours (the condition produced stage 15 embryos identical to embryos obtained at 23° C. for 10 hours). PMA or DMSO was added to the embryos 21 hours after fertilization.

CCCCCCCCCCCCCC(=O)O[C@@H]1[C@@H](C)[C@@]2(O)[C@@H](C=C(CO)C[C@@]3(O)C(=O)C(C)=C[C@@H]23)[C@@H]2C(C)(C)[C@]12OC(C)=O [4 alpha-PMA]
embryo morphology / developmental stage reached: typical neurula morphology

Source: patent publication US20080145858A1, “DETECTION AND IDENTIFICATION OF TOXICANTS BY MEASUREMENT OF GENE […]” (priority 2003, published 2008)
